Each structure is given as a SMILES string. ≈ marks a conversion by molar mass, not a printed value. Calls of active or inactive are those of the source. The calls are words filed in the database; no cut-off is given here. Bounds are passed on as bounds.

In general, LD50 refers to the dose expected to kill half of the subjects tested. The term MIC denotes the lowest concentration that inhibits growth of the organism. A lower MIC goes with a more susceptible organism.

Experiment [1] concerns Bombyx mori. Put plainly: Insecticidal activity against third instar larvae of Bombyx mori (silkworm) measured after 24 hrs. It counts as functional.
Experiment [2] has as its system Helicoverpa armigera. Briefly: Insecticidal activity against third instar larvae of Helicoverpa armigera (cotton bollworms) measured after 24 hrs. The format is functional.
For experiment [3], the system named is PC12D. Put plainly: Neuroprotective activity in rat PC12 cells assessed as reduction in 6-OHDA-induced cell death at 40 uM pretreated for 30 mins followed by 6-OHDA stimulation and measured after 24 hrs by MTT assay. It counts as functional, cell-based. Conditions: time 24.5 hrs.
The test system of experiment [4] is Bacillus subtilis. Briefly: Antibacterial activity against Bacillus subtilis measured after 24 hrs by agar diffusion method. The format is functional. For orientation: In agar diffusion tests the substance spreads into inoculated agar from a disc or well.

For the molecule `CO[C@@H]1[C@]2(O)c3cc(O)ccc3N3C(C)(C)[C@H](CO)[C@]32N2C(=O)/C3=C/c4c([nH]c5ccccc45)C(C)(C)/C=C\N3C(=O)[C@]12O`, the LD50 in experiment [1] and in experiment [2] was above 100 mg/kg throughout. As for `CO[C@@H]1[C@]2(O)c3cc(O)ccc3N3C(C)(C)[C@H](C)[C@]32N2C(=O)/C3=C/c4c([nH]c5ccccc45)C(C)(C)/C=C\N3C(=O)[C@]12O`, the LD50 was 0.07 mg/kg in experiment [1] and below 0.01 mg/kg in experiment [2].

With `C=C(C)[C@H]1Cc2c(ccc3c2O[C@@H]2COc4cc(OC)c(OC)cc4[C@@H]2C3=O)O1` [ROTENONE], the figures for the LD50 in experiment [1] and in experiment [2] were 37.8 mg/kg and 5.79 mg/kg, respectively. For `CO[C@@H]1[C@]2(O)c3cccc(O)c3N3C(C)(C)[C@H](C)[C@]32N2C(=O)/C3=C/c4c([nH]c5cc(Cl)ccc45)C(C)(C)/C=C\N3C(=O)[C@]12O` the same measures were 7.56 mg/kg and 4.13 mg/kg. For `CO[C@@H]1[C@]2(O)c3cc(O)ccc3N3C(C)(C)[C@H](C)[C@]32N2C(=O)/C3=C/c4c([nH]c5cc(Cl)ccc45)C(C)(C)/C=C\N3C(=O)[C@]12O` the same measures were 0.61 mg/kg and 0.06 mg/kg.

With `CC(NCCc1ccccc1)=C1C(=O)[C@@H]2[C@H]3c4c[nH]c5cccc(c45)C[C@H]3C(C)(C)N2C1=O` (mixture of isomers), in experiment [3], the result was Active.

On to `CO[C@@H]1[C@]2(O)c3cc(O)ccc3N3C(C)(C)[C@H](CO)[C@]32N2C(=O)/C3=C/c4c([nH]c5cc(Cl)ccc45)C(C)(C)/C=C\N3C(=O)[C@]12O`, for which the LD50 in experiment [1] and in experiment [2] was above 100 mg/kg each time. Regarding `C/C(O)=C1\C(=O)[C@@H]2[C@H]3c4c[nH]c5cc(Cl)cc(c45)[C@@H](O)[C@H]3C(C)(C)N2C1=O`, in experiment [4], the MIC was 6.3 µg/mL (≈ 16.3 µM).
